# From patent US20180021278A1, “TREATMENT OR PREVENTION OF INFLAMMATION USING SERINE” (NESTEC S.A., priority 2015, published 2018)
# System: DSS-induced colitis
# Assay: DSS-induced colitis in rats, histological total colitis score of colon sections (HE staining)
# Format: in vivo
# Details: male Sprague-Dawley rats, 5% DSS D0-D8 then 2% DSS D9-D28, control diet supplemented with 10 g/kg dry matter serine (DSS-SER) vs alanine-supplemented DSS-ALA group
# Protocol: The experimental procedures were carried out in accordance to European guidelines for the care and use of laboratory animals (Directive 2010/63/UE). 30 male Sprague-Dawley rats from Janvier (France), aged […] and weighting around 500/700g on the day of arrival, were used for this study. Animals were individually housed in cages. During the study, they had free access to food and drinking water or a dextran sulfate sodium (DSS, MW 36-44 kDa, ICN Biomedicals) solution ad libitum. Colitis was induced by treating rats with 5% DSS from D0 to D8 (acute colitis) and then 2% DSS from D9 to D28 (chronic colitis). DSS was dissolved in autoclaved water and provided ad libitum to the rats. Animals of the control group were given water not containing DSS from D0 to D28.
# 3 groups of rats received the following treatment and diets: […]
# At the end of the experiment (D28), animals were anesthetized using a combination of ketamine and xylasine and then euthanized by cervical dislocation. […] A score (ranging from 0 to 3) was finally determined for each criterion on each colon section and a total score was calculated.
compound,measurement,setting,value
"N[C@@H](CO)C(=O)O [Serine, serine]","Total colitis score (sum of 0-3 scores for mucosal degeneration, mucosal regeneration and hyperplasia, acute and sub-acute inflammation)",p<0.05,significantly lower
same,"Total colitis score (sum of 0-3 scores for mucosal degeneration, mucosal regeneration and hyperplasia, acute and sub-acute inflammation)","p<0.05, listed as serine",reduced colitis
